Drawing on patent US9260429B2, “Pyrido[3,4-B]indoles and methods of use” (Medivation Technologies, Inc., priority 2008, dated 2016), this text covers inhibition for eleven compounds.

Test [1] deals with T1, human recombinant serotonin (5-Hydroxytryptamine) 5-HT2C receptor (Homo sapiens, UniProt P28335).
T1 construct: expressed in transfected cells; host or cells: CHO-K1 cells
T1 sequence (P28335 33-458): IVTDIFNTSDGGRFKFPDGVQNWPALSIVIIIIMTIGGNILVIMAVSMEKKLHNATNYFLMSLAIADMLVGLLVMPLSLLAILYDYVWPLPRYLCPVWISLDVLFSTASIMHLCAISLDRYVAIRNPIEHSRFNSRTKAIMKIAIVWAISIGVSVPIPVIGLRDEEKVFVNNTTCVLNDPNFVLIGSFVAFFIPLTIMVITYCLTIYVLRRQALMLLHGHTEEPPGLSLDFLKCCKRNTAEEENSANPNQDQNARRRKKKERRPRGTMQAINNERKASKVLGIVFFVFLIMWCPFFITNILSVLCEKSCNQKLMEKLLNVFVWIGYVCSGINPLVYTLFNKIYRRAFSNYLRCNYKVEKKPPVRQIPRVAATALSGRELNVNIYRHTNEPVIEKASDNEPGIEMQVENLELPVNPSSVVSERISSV
Description: Serotonin 5-HT2C radioligand binding ([3H]Mesulergine). The conditions noted are these: 1 h; read-out: Percent Inhibition of ligand binding Serotonin (1 μM ligand concentration) 5-HT2C. As for the experimental part: Compounds of the invention were incubated with 1 nM [^3H]Mesulergine for 60 minutes at 25° C. Non-specific binding was estimated in the presence of 1 μM Mianserin. Receptor proteins were filtered and washed, the filters were then counted to determine [^3H]Mesulergine specifically bound. […] Biochemical assay results are presented as the percent inhibition of specific binding in Table 5.

For test [2], the target named is T2, human recombinant serotonin (5-Hydroxytryptamine) 5-HT6 receptor (Homo sapiens, UniProt P50406).
T2 construct: expressed in transfected cells; host or cells: human HeLa cells
Description: Serotonin 5-HT6 radioligand binding ([3H]LSD). The conditions noted are these: 2 h; read-out: Percent Inhibition of ligand binding Serotonin (1 μM ligand concentration) 5-HT6. In a few lines:
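Human 5-HT6 receptor expressed in HeLa cells, in Tris-HCl pH 7.4 with 150 mM NaCl, ascorbic acid and BSA. Compounds at 1 μM or lower (1% DMSO) incubated 120 min at 37° C with 1.5 nM [3H]LSD. Non-specific binding defined with serotonin; filter counting gives % inhibition of specific binding.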

The target of test [3] is T3, human recombinant histamine H2 receptor (Homo sapiens, UniProt P25021).
T3 construct: expressed in transfected cells; host or cells: CHO-K1 cells
Description: Histamine H2 radioligand binding ([125I]Aminopotentidine). The following applies: 1 μM; inhibition of specific [125I]Aminopotentidine binding; read-out: Binding data (Percentage Inhibition) Histamine Binding (1 μM) H2. In a few lines:
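Membranes of CHO-K1 cells expressing human H2 receptor incubated with 0.1 nM [125I]aminopotentidine, 120 min, 25 °C, 50 mM phosphate pH 7.4; nonspecific binding defined with 3 μM tiotidine.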

Test [4] has as its target T4, human recombinant serotonin (5-Hydroxytryptamine) 5-HT2A receptor (Homo sapiens, UniProt P28223).
T4 construct: expressed in transfected cells; host or cells: CHO-K1 cells
Description: Serotonin 5-HT2A radioligand binding ([3H]Ketanserin). The conditions noted are these: 1 h; read-out: Percent Inhibition of ligand binding Serotonin (1 μM ligand concentration) 5-HT2A. In a few lines: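 Membranes from CHO-K1 cells expressing the receptor, in 50 mM Tris-HCl pH 7.4, incubated 60 min at 25° C with 0.5 nM [3H]Ketanserin; 1 μM Mianserin defines non-specific binding. Filtration and counting; values are % inhibition of specific binding at 1 μM or lower, 1% DMSO.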

Test [5] concerns the target T5, human recombinant adrenergic α2B receptor (Homo sapiens, UniProt P18089).
T5 construct: expressed in transfected cells; host or cells: CHO-K1 cells
T5 sequence (P18089 1-450): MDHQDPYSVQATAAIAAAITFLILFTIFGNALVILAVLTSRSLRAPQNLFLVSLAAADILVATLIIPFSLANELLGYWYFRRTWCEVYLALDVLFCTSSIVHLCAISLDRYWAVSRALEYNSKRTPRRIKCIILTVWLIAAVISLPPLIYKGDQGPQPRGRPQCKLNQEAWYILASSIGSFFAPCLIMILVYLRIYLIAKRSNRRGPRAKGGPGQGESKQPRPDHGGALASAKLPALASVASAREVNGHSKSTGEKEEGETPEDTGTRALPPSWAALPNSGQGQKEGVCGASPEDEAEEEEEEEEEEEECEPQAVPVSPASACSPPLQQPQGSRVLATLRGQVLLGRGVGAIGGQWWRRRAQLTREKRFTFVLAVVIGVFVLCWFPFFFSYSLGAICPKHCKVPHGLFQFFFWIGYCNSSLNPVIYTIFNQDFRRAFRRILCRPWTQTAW
Description: Adrenergic α2B radioligand binding ([3H]Rauwolscine). The following applies: 1 h; read-out: Percent Inhibition of ligand binding Adrenergic (1 μM ligand conc.) α2B. As for the experimental part: To evaluate in radioligand binding assays the activity of compounds of the invention, human recombinant adrenergic α2B receptor expressed in Chinese hamster ovary (CHO-K1) cells (Uhlen S et al. Eur J. Pharmacol. 343(1):93, 1998) in a modified Tris-HCl buffer (50 mM Tris-HCl, pH 7.4, 12.5 mM MgCl2, 1 mM EDTA, 0.2% BSA) was used. Compounds of the invention were incubated with 2.5 nM [^3H]Rauwolscine for 60 minutes at 25° C. Non-specific binding was estimated in the presence of 10 μM Prozosin. Receptor proteins were filtered and washed, the filters were then counted to determine [^3H]Rauwolscine specifically bound. Compounds were screened at 1 μM or lower, using 1% DMSO as vehicle. Biochemical assay results are presented as the percent inhibition of specific binding in Table 4.

T4 sequence (P28223 whole entry): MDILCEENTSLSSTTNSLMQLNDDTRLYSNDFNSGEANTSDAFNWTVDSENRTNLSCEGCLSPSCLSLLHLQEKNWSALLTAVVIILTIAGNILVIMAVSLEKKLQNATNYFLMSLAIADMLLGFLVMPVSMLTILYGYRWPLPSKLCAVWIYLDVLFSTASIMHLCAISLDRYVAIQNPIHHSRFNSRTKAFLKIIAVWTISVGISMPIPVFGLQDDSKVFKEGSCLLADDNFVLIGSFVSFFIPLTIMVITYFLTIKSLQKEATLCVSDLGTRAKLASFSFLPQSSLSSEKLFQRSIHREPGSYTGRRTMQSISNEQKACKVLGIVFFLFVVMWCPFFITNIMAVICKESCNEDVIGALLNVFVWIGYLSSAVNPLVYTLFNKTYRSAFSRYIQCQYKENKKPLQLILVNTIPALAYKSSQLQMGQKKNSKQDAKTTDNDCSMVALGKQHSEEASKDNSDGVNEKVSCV
T2 sequence (P50406 whole entry): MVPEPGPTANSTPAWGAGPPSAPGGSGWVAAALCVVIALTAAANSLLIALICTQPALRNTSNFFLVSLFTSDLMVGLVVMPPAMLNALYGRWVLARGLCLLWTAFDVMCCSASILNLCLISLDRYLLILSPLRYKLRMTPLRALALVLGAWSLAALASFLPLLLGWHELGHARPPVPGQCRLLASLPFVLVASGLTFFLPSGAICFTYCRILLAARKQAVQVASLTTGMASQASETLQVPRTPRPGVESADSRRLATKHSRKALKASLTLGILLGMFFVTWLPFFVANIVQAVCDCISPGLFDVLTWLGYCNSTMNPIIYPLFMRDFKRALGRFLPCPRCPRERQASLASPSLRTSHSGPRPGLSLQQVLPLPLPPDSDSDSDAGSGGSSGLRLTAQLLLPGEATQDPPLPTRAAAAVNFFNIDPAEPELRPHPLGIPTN
T3 sequence (P25021 whole entry): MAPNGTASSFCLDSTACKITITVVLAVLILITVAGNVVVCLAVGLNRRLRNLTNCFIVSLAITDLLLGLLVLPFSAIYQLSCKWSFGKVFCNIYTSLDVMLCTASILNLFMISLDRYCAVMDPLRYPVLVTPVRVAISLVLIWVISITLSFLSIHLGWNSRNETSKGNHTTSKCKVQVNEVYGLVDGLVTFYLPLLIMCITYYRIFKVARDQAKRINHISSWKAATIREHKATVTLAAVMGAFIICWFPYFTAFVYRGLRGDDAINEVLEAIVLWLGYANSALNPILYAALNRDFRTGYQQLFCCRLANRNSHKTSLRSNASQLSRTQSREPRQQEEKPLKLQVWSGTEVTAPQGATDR

As for `CCC1c2c(c3cc(Cl)ccc3n2C#Cc2ccc(F)cc2)CCN1C` (stereo not shown) [Compound 129], the inhibition at 1 µM in test [1] was 107%; in test [2], 22%; in test [3] it was 26%; in test [4], 85%; in test [5], 81%.
In the case of `CC1c2c(c3cc(Cl)ccc3n2CCc2ccc(F)cc2)CCN1C` (stereo not shown) [Compound 81], the inhibition at 1 µM in test [1] was determined as 88%; in test [2], 96%; in test [3], 67%; in test [4], 93%; in test [5], 102%.
Taken in the same sequence, the figures for `Cc1ccc2c(c1)c1c(n2CC(=O)O)CN(C)CC1` [Compound 53, 2-(1,2,3,4-tetrahydro-2,6-dimethylpyrido[3,4-b]indol-9-yl)acetic acid] were -3%, -8%, 0%, -6% and 6%.
Take `COc1ccc(C(O)Cn2c3c(c4cc(Cl)ccc42)CCN(C)C3)cc1OC` (stereo not shown) [Compound 70]: the inhibition at 1 µM in test [1] was determined as 63%; in test [2] it was 21%; in test [3], 1%; in test [4], 56%; in test [5], 77%.
In the case of `C/C(=C/n1c2c(c3cc(C)ccc31)CCN(C)C2C)c1ccccc1F` (stereo not shown) [Compound 165], the inhibition at 1 µM in test [1] came out at 93%; in test [2] it was 46%; in test [3] it was 22%; in test [4], 85%; in test [5] it was 91%.
Take `C/C(=C\n1c2c(c3cc(Cl)ccc31)CCN(C)C2)c1ccc(Cl)cc1` [Compound 98, 6-chloro-9-(2-(4-chlorophenyl)prop-1-enyl)-2-methyl-2,3,4,9-tetrahydro-1H-pyrido[3,4-b]indole]: the inhibition at 1 µM in test [1] was 103%; in test [2] it was 79%; in test [3], 94%; in test [4] it was 98%; in test [5] it was 87%.
For `C/C(=C\n1c2c(c3cc(C)ccc31)CCN(C)C2)c1ccc(Cl)cc1` [Compound 97, 9-(2-(4-chlorophenyl)prop-1-enyl)-2,6-dimethyl-2,3,4,9-tetrahydro-1H-pyrido[3,4-b]indole] the same measures were 99%, 72%, 89%, 97% and 96%.
Turning to `CN1CCc2c(n(CCC3CCCC3)c3ccc(Cl)cc23)C1` [Compound 35, 6-chloro-9-(2-cyclopentylethyl)-2,3,4,9-tetrahydro-2-methyl-1H-pyrido[3,4-b]indole], the inhibition at 1 µM in test [1] came to 87%; in test [2] it was 67%; in test [3], 67%; in test [4], 69%; in test [5] it was 65%.
For `CN1CCc2c(n(CCN3CCCCC3)c3ccc(Cl)cc23)C1` [Compound 34, 6-chloro-2,3,4,9-tetrahydro-2-methyl-9-(2-(piperidin-1-yl)ethyl)-1H-pyrido[3,4-b]indole], the inhibition at 1 µM in test [1] was 37%; in test [2], 16%; in test [3], 20%; in test [4] it was 31%; in test [5], 38%.
Taken in the same sequence, the figures for `CN1CCc2c(n(CC(O)c3ccccc3F)c3ccc(Cl)cc23)C1` (stereo not shown) [Compound 59, 2-(6-chloro-2-methyl-3,4-dihydro-1H-pyrido[3,4-b]indol-9(2H)-yl)-1-(2-fluorophenyl)ethanol] were 74%, 60%, 28%, 80% and 97%.
For `Cc1ccc2c(c1)c1c(n2CC(C)(O)c2ccc(F)cc2)CN(C)CC1` (stereo not shown) [Compound 61, 1-(2,6-dimethyl-3,4-dihydro-1H-pyrido[3,4-b]indol-9(2H)-yl)-2-(4-fluorophenyl)propan-2-ol] the same measures were 81%, 61%, 17%, 86% and 101%.
